30 molecules from ChEMBL document CHEMBL1143644, “Synthesis and biological activities of novel aryl indole-2-carboxylic acid analogs as PPARgamma partial agonists” (Bioorg Med Chem Lett, 2005) can be followed below.

Data set [1] has as its target T1, Peroxisome proliferator-activated receptor alpha (Homo sapiens, UniProt Q07869).
T1 sequence (Q07869 whole entry): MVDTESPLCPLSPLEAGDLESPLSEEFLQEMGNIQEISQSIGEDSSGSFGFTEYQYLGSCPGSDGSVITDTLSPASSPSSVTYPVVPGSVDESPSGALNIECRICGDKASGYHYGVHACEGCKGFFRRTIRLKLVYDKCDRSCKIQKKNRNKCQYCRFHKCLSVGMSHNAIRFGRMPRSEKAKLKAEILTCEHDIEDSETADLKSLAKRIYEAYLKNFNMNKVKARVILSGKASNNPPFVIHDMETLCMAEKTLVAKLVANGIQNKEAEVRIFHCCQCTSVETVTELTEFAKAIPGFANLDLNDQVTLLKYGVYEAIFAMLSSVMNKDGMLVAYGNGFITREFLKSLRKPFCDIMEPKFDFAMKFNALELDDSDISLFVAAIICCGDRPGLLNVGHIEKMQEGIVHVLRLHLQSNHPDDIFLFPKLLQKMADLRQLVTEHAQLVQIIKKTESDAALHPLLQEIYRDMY
As to the kind of experiment: Inhibitory concentration against human peroxisome proliferator activated receptor alpha in SPA assay.

For data set [2], the target named is T2, Peroxisome proliferator-activated receptor gamma (Homo sapiens, UniProt P37231).
T2 sequence (P37231 whole entry): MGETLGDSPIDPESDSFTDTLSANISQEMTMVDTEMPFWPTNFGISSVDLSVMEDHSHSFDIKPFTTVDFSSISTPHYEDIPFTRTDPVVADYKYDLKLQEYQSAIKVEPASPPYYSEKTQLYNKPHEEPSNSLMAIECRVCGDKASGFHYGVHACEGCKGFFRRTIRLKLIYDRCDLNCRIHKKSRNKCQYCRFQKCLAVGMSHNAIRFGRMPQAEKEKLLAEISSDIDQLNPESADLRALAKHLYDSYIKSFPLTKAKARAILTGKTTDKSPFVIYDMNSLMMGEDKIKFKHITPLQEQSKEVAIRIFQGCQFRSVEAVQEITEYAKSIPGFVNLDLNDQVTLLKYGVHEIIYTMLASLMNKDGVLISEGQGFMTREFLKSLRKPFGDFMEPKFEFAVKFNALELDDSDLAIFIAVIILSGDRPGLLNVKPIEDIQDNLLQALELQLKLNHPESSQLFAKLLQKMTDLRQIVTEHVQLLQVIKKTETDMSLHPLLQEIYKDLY
In words: Effective agonist concentration for human PPAR gamma Gal4 construct in transactivation assay. The class given is functional.

For data set [3], the target named is T2, Peroxisome proliferator-activated receptor gamma.
Description: Inhibitory concentration against human peroxisome proliferator activated receptor gamma in SPA assay
A short description of data set [4]: Bioavailability. It is filed as ADME, organism-based. To be noted: eutheria, in vivo.
A short description of data set [5]: Half life at normal dose was determined. It is filed as ADME.
Data set [6] can be described thus: Area under curve at normal dose was determined. The class given is ADME.

As to `CC(C)(C)c1ccc(-n2c(C(=O)O)c(Oc3cccc(C(F)(F)F)c3)c3cccnc32)cc1`, the IC50 in data set [1] is greater than 50000 nM; in data set [3], 75 nM. The molecule also came in with an EC50 in data set [2] of 464 nM.

`CC(C)(C)c1ccc(-n2c(C(=O)O)c(Oc3cccc(C(F)(F)F)c3)c3ccc(Cl)cc32)cc1`: the IC50 is greater than 15000 nM in data set [1] and 27 nM in data set [3]. Further, the EC50 in data set [2] was determined as 106 nM.

With `CC(C)c1cccc(Oc2c(C(=O)O)n(-c3ccc(C(C)(C)C)cc3)c3cc(Cl)ccc23)c1`, the results for the IC50 in data set [1] and in data set [3] were greater than 15000 nM and 19 nM, respectively.

As to `CC(C)(C)c1ccc(-n2c(C(=O)O)c(Oc3cccc(C(F)(F)F)c3)c3cc(Oc4cc(C(F)(F)F)ccn4)ccc32)cc1`, the bioavailability in data set [4] worked out at 2.4%. In data set [5], this molecule had a half-life of 48 min. The molecule also had an EC50 in data set [2] of 6 nM.

For the molecule `CC(C)(C)c1ccc(-n2c(C(=O)O)c(Oc3cccc(C(F)(F)F)c3)c3ccc(Cl)nc32)cc1`, the IC50 in data set [1] is greater than 15000 nM; in data set [3], 21 nM. The molecule also gave a half-maximal effective concentration (EC50) in data set [2] of 176 nM.

On to `CC(C)COc1ccc2c(c1)c(Oc1cccc(C(F)(F)F)c1)c(C(=O)O)n2-c1ccc(C(C)(C)C)cc1`, for which the results for the IC50 in data set [1] and in data set [3] were 4150 nM and 18 nM, respectively. The molecule also returned a concentration for a half-maximal effect (EC50) in data set [2] of 91 nM.

In the case of `COc1ccc(-n2c(C(=O)O)c(Oc3cccc(C(F)(F)F)c3)c3ccccc32)cc1`, the IC50 in data set [1] was greater than 50000 nM; in data set [3], 115 nM. Moreover, the EC50 in data set [2] worked out at 334 nM.

`CCOc1cccc(Oc2c(C(=O)O)n(-c3ccc(C(C)(C)C)cc3)c3ccccc23)c1`: the values for the IC50 in data set [1] and in data set [3] were greater than 50000 nM and 49 nM, respectively. In data set [2], this molecule had an EC50 of 233 nM.

On to `CC(C)(C)c1ccc(-n2c(C(=O)O)c(Oc3cccc(C(F)(F)F)c3)c3cc(O)ccc32)cc1`, for which the IC50 was greater than 50000 nM in data set [1] and 318 nM in data set [3].

In data set [1], `O=C(O)c1c(Sc2ccccc2)c2cc(Cl)ccc2n1Cc1ccc(Cl)cc1` registered an IC50 greater than 15000 nM.

With `O=C(O)c1c(Oc2cccc(C(F)(F)F)c2)c2ccccc2n1-c1ccc(C(F)(F)F)cc1`, the IC50 in data set [1] is 3200 nM; in data set [3], 107 nM.

`CC(C)(C)c1ccc(-n2c(C(=O)O)c(Oc3cccc(C(F)(F)F)c3)c3cc(Oc4ccccn4)ccc32)cc1` registered an EC50 in data set [2] of 126 nM.

For the molecule `CC(C)(C)c1ccc(-n2c(C(=O)O)c(Oc3cccc(O)c3)c3ccccc32)cc1`, the IC50 was greater than 50000 nM in data set [1] and 78 nM in data set [3]. The same molecule gave an EC50 in data set [2] of 161 nM.

With `CC(C)(C)c1ccc(-n2c(C(=O)O)c(Oc3cc(C(F)(F)F)cc(C(F)(F)F)c3)c3cc(Cl)ccc32)cc1`, the IC50 is greater than 15000 nM in data set [1] and 83 nM in data set [3].

With `CC(C)(C)c1ccc(-n2c(C(=O)O)c(Oc3cccc(C(F)(F)F)c3)c3cc(Cl)ccc32)cc1`, the IC50 in data set [1] was greater than 15000 nM; in data set [3], 17 nM. Also, a half-maximal response in data set [2] (EC50) required 136 nM.

Regarding `CC(C)c1cccc(-n2c(C(=O)O)c(Oc3ccc(C(F)(F)F)cc3)c3ccccc32)c1`, the figures for the 50% inhibitory concentration (IC50) in data set [1] and in data set [3] were greater than 15000 nM and 120 nM, respectively.

As to `CC(C)(C)c1ccc(-n2c(C(=O)O)c(Oc3cccc(S(C)(=O)=O)c3)c3ccc(Cl)nc32)cc1`, the half-maximal inhibitory concentration (IC50) in data set [1] is greater than 50000 nM; in data set [3], 202 nM.

Consider `CC(C)(C)c1ccc(-n2c(C(=O)O)c(Oc3ccc(OC(F)(F)F)cc3)c3ccccc32)cc1`, for which the IC50 in data set [1] was 3580 nM; in data set [3], 49 nM.

For the molecule `CC(C)c1cccc(-n2c(C(=O)O)c(Oc3cccc(C(F)(F)F)c3)c3ccccc32)c1`, the figures for the IC50 in data set [1] and in data set [3] were greater than 15000 nM and 60 nM, respectively.

As for `CC(C)c1cccc(-n2c(C(=O)O)c(Oc3cccc(O)c3)c3ccccc32)c1`, the IC50 is greater than 50000 nM in data set [1] and 102 nM in data set [3].

`COc1ccc2c(c1)c(Oc1cccc(C(F)(F)F)c1)c(C(=O)O)n2-c1ccc(C(C)(C)C)cc1`: the IC50 is greater than 15000 nM in data set [1] and 39 nM in data set [3].

As to `CC(C)(C)c1ccc(-n2c(C(=O)O)c(Oc3cccc(-c4cc(C(F)(F)F)c[nH]4)c3)c3ccc(Cl)nc32)cc1`, the IC50 is greater than 50000 nM in data set [1] and 58 nM in data set [3]. This molecule also showed an EC50 in data set [2] of 95 nM.

On to `COc1ccc2c(Oc3cccc(C(F)(F)F)c3)c(C(=O)O)n(-c3ccc(C(C)(C)C)cc3)c2n1`, for which the IC50 is greater than 15000 nM in data set [1] and 100 nM in data set [3]. The molecule further had an EC50 in data set [2] of 299 nM.

Turning to `CC(C)(C)c1ccc(-n2c(C(=O)O)c(Oc3cccc(C(F)(F)F)c3)c3ccccc32)cc1`, the IC50 in data set [1] turned out to be 10600 nM; in data set [3], 12 nM. The molecule further gave a half-life in data set [5] of 30 min. In data set [6], this molecule yielded an AUC of 9.19 µM·h. Also, in data set [2], the EC50 worked out at 13 nM.

Consider `CCOc1ccc2c(c1)c(Oc1cccc(C(F)(F)F)c1)c(C(=O)O)n2-c1ccc(C(C)(C)C)cc1`, for which the IC50 is 6270 nM in data set [1] and 18 nM in data set [3]. This molecule also yielded an EC50 in data set [2] of 34 nM.

`CC(C)(C)c1ccc(-n2c(C(=O)O)c(Oc3ccc(Cl)cc3)c3ccc(OC(F)(F)F)cc32)cc1`: the IC50 in data set [1] was greater than 15000 nM; in data set [3] it was 298 nM. In addition, the midpoint of the response in data set [2], the EC50, lay at 411 nM.

As to `COc1cccc(Oc2c(C(=O)O)n(-c3ccc(C(C)(C)C)cc3)c3nc(Cl)ccc23)c1`, the IC50 in data set [1] is greater than 15000 nM; in data set [3], 104 nM. Also, a half-maximal response in data set [2] (EC50) required 755 nM.

Turning to `CC(C)(C)c1ccc(-n2c(C(=O)O)c(Oc3cccc(C(F)(F)F)c3)c3cc(Oc4cc(Cl)c[nH]4)ccc32)cc1`, the bioavailability in data set [4] is 9.8%. Also, the half-inhibitory concentration (IC50) is greater than 15000 nM in data set [1] and 2 nM in data set [3]. In data set [5], this molecule gave a half-life of 108 min. In data set [6], the AUC was found to be 0.3 µM·h. Moreover, in data set [2], the EC50 is 2 nM.

`CC(C)(C)c1ccc(-n2c(C(=O)O)c(Oc3ccc(-c4cc(C(F)(F)F)c[nH]4)cc3)c3cccnc32)cc1`: the IC50 is greater than 50000 nM in data set [1] and 251 nM in data set [3]. The midpoint of the response in data set [2], the EC50, lay at 34 nM.

Turning to `CC(C)(C)c1ccc(-n2c(C(=O)O)c(Oc3ccc(Cl)c(C(F)(F)F)c3)c3cc(Cl)ccc32)cc1`, the results for the IC50 in data set [1] and in data set [3] were 4480 nM and 13 nM, respectively.
